Laboratory results as given in EP0148660A1, “Beta-carboline derivatives, process for their preparation and medicaments containing them” (Etablissement Public dit: CENTRE NATIONAL DE LA RECHERCHE …, priority 1983, dated 1985).

Experiments:
[1] = target: récepteur des benzodiazépines; assay: Displacement of 3H-flunitrazepam from its receptor in rat cortex tissue (in vitro); assay type: binding; conditions: for IC50: 3H-flunitrazépam 4 nM, cortex du Rat, 0°, 60 mn, pH 7,4
From the text: Pour déterminer l'activité pharmacologique des molécules de cette invention, leur affinité pour le récepteur des benzodiazépines a d'abord été étudiée. Cette affinité est déterminée par l'aptitude de la molécule à déplacer une benzodiazépine radioactive (le flunitrazépam tritié) de son récepteur.
Ce pouvoir de déplacement de la molécule est indiqué par son IC50, c'est-à-dire la concentration du produit nécessaire pour déplacer 50 % des liaisons spécifiques du ^3H-flunitrazépam avec son récepteur, à partir de tissus préparés du cerveau du Rat.
Pour ces essais in vitro, il s'agit d'incuber à 0° pour 60 mn une suspension de tissus provenant du cortex du Rat (= 10 mg de tissu par échantillon) dans un milieu tamponné (pH 7,4, 0,05 M Tris-HCl) en présence d'une concentration fixe de ^3H-flunitrazépam (= 4 nM, 89 Ci/mmole) et d'une concentration variable du produit (10^-3 à 10^-9 M). La suspension est ensuite filtrée et la radioactivité restant sur le filtre est déterminée par scintillation. L'information obtenuepermet de dessiner une courbe de déplacement contre la concentration du produit et de calculer l'IC50 du produit.

Babouin photosensible [2] = assay: Photosensitive baboon, intermittent light stimulation (SLI); assay type: in vivo
From the text: Cette molécule appartient à la classe des agonistes inverses. Elle provoque des convulsions. Le modèle utilisé est le Babouin photosensible. Sur ce modèle, l'application de stimulation lumineuse intermittente (SLI) par l'intermédiaire d'une lampe stroboscopique provoque des manifestations épileptiques d'amplitude variable. Suivant l'intensité de leur réponse, les animaux sont classés de 0 à + 4.
2 animaux PP 86 et 88 ont été utilisés. Le 86 est + 3 au bout de 30 secondes de SLI, le 5.5.1983. L'administration de l'éthylamino-3-β-carboline (1 mg/kg) réduit cette latence à 10 secondes, 2 minutes après l'injection. lh30 après l'injection, cette latence est toujours très diminuée (20 secondes). […] Ces résultats sont très différents de ceux de la méthyl-S-carboline dont l'effet convulsivant disparait au bout de 20 minutes chez le Babouin.
Le 88 a montré le même type de résultat. Après 15 secondes de SLI, il est + 3 le 5.5.1983. Après l'administration de 2 mg/kg de N-éthyl carboline, la SLI provoque un stade + 3 au bout de 5 secondes. […] Après 5 heures, la latence est toujours raccourcie (10 secondes).

souris [3] = assay: Convulsions induced by pentylenetetrazol (PTZ) in mice; assay type: in vivo; conditions: PTZ 70 mg/kg s.c.
Experimental: 40 souris "Swiss", d, 30 g recoivent 70 mg/kg s.c. de PTZ. Les souris sont divisées en 4 lots : 1 lot contrôle, 1 lot reçoit 10 mg/kg s.c. de méthyl carbamate, 5 minutes avant le PTZ, 1 lot la même dose de méthyl carbamate 15 minutes avant, et le dernier lot une dose de 1 mg/kg de méthyl carbamate 15 minutes avant. 60 % à 80 % des souris présentent des convulsions dans les 4 lots sans différences statistiquement significatives entre les lots.

souris [4] = assay: Antagonism of convulsions induced by méthyl β-carboline in mice; assay type: in vivo; conditions: 1 mg/kg s.c. 5 minutes before méthyl β-carboline 1 to 10 mg/kg s.c.
Experimental: Par contre, cette molécule antagonise les effets convulsivants induits par un agoniste inverse de la méthyl-β-carboline.
100 souris (30 g, ♂) sont traitées par des doses croissantes de méthyl B-carboline de 1 mg à 10 mg/kg s.c. La moitié des souris a été prétraitée par 1 mg/kg de méthyl carbamate s.c. 5 minutes avant l'injection de méthyl β-carboline.

souris [5] = assay: Antagonism of the anticonvulsant action of diazepam (PTZ) in mice; assay type: in vivo; conditions: PTZ 70 mg/kg s.c.; diazépam 1 mg/kg s.c. 25 minutes before, carbamate 10 mg/kg 15 minutes before; 80 % of controls convulse
Experimental: ① Absence d'effets antagonistiques sur l'action anticonvulsivante du diazépam :
20 souris (30 g, ♂) ont été traitées avec 70 mg/kg s.c. de PTZ. Une moitié a servi de contrôle; l'autre moitié a reçu 1 mg/kg s.c. de diazépam 25 minutes avant le PTZ et 10 mg/kg de carbamate 15 minutes avant le PTZ.

souris [6] = assay: Blockade of diazepam-induced sedation, rotarod in mice; assay type: in vivo; conditions: 10 mg/kg s.c.; diazépam 2 mg/kg s.c.
Experimental: ②. Blocage de la sédation induite par le diazépam :
20 souris (30 g, ♂) ont été entraînées sur le rotarod (bâton de 2,5 cm 0 tournant à 4 rev/mn) pendant 5 minutes. Les souris entraînées seront utilisées si, lors du test précédant l'injection, elles restent 1 minute sans tomber du bâton. Les souris reçoivent toutes 2 mg/kg s.c. de diazépam et sont testées toutes les 10 minutes. Le pourcentage de souris restant 1 minute sur le bâton est indiqué en ordonnée de la figure.

souris [7] = assay: Conflict test (Skinner box), anxiolytic effect of diazepam in mice; assay type: in vivo
Experimental: ③. Absence d'effet antagoniste sur les effets anxiolytiques du diazépam : • 9 souris ont été entraînées dans un test de conflit décrit par PRADO et al. (Nature 301, 64-66, 1983). En bref les animaux privés de nourriture sont soumis à des séances quotidiennes de 15 minutes dans une boîte de Skinner. Ces sessions comprennent successivement : 5 mn sans conflit (où la souris reçoit une boulette de nourriture chaque fois qu'elle appuie sur la pédale), 5 mn de conflit (où l'appui sur la pédale entraîne à la fois la délivrance d'une boulette et un choc électrique léger), 5 mn sans conflit. Les performances des souris (nombre d'appuis/mn) baissent durant les phases de conflit.

[8] = tested on: récepteur des benzodiazépines; assay: In vivo displacement of tritiated flunitrazepam in mouse brain regions; design: species or system souris; conditions: for flunitrazépam tritié déplacé: 10 mg/kg; for DE50 (dose effective pour déplacer 50 % du flunitrazépam tritié): s.c.
Experimental: Ceci est démontré par des tests de déplacement du flunitrazépam tritié par le méthyl β-carbamate invivo.
200 µCi/kg de flunitrazépam tritié sont injectées i.v. chez la souris. Après 10 minutes, une dose connue du méthyl β-carbamate (allant de 2,5 mg/kg jusqu'à 10 mg/kg) est injectée s.c. et 10 minutes plus tard, l'animal est sacrifié. Le cerveau est rapidement disséqué. Le cervelet, le cortex et l'hippocampe sont isolés et broyés séparément et ensuite filtrés. La quantité de radio-activité restant sur le filtre est inversement proportionnelle au pouvoir de déplacement du méthyl β-carbamate.

Babouin photosensible [9] = conditions: comparison; cited from earlier work

SMILES: CCOC(=O)c1cc2c(cn1)[nH]c1ccccc12 [-CO2CH2CH3, ester éthyliquede l'acide β-carboline-3-carboxylique, reference compound]
- IC50 [1]: 2 nM

SMILES: Nc1cc2c(cn1)[nH]c1ccccc12 [-NH2, amino-3-β-carboline]
- IC50 [1]: 25000 nM

SMILES: CCNc1cc2c(cn1)[nH]c1ccccc12 [-NHCH2CH3, éthylamino-3-β-carboline]
- IC50 [1]: 460 nM
- persistence of the effect on latency (Babouin photosensible [2]; animal 88, 2 mg/kg): persiste une heure
- latence du stade + 3 sous SLI (Babouin photosensible [2]; animal 88, 2 mg/kg (15 secondes before treatment)): 5 secondes
- latence du stade + 3 sous SLI (Babouin photosensible [2]; animal 88, 2 mg/kg, après 5 heures): 10 secondes
- spontaneous seizure after injection (Babouin photosensible [2]; animal PP 86, 1 mg/kg): crise épileptique tonico-clonique spontanée
- latence du stade + 3 sous SLI (Babouin photosensible [2]; animal PP 86, 1 mg/kg, 1h30 après l'injection): 20 secondes
- latence du stade + 3 sous SLI (Babouin photosensible [2]; animal PP 86, 1 mg/kg, 2 minutes après l'injection (30 secondes before treatment)): 10 secondes

SMILES: O=CNc1cc2c(cn1)[nH]c1ccccc12 [-NHCHO, formylamino-3-β-carboline]
- IC50 [1]: 4700 nM

SMILES: CCOC(=O)Nc1cc2c(cn1)[nH]c1ccccc12 [-NHCO2CH2CH3, éthoxycarbonylamino-3-β-carboline]
- IC50 [1]: 80 nM

SMILES: COC(=O)Nc1cc2c(cn1)[nH]c1ccccc12 [-NHCO2CH3, méthoxycarbonylamino-3-β-carboline]
- IC50 [1]: 71 nM
- IC50 compared with éthylamino-3-β-carboline ([1]; relative to the IC50 of éthylamino-3-β-carboline): presque dix fois plus faible
- 3H-flunitrazépam déplacé ([1]; à haute concentration): 80%
- activité agonistique sur les convulsions induites par le PTZ (souris [3]): dénuée d'activité agonistique
- effect on convulsions induced by méthyl β-carboline (souris [4]): antagonise d'une façon compétitive
- convulsions in mice treated with diazépam + méthyl carbamate (souris [5]): aucun phénomène convulsif
- effect on the sedative effect of diazépam (rotarod) (souris [6]): antagonise l'effet sédatif du diazépam
- effect on the anxiolytic effect of diazépam (conflict test) (souris [7]; given simultaneously with diazepam 5 mg/kg s.c.): ne bloque pas cet effet anxiolytique du diazépam
- selectivity between brain regions / receptor sub-classes ([8]; cervelet (BZ1) versus cortex and hippocampe (BZ1 and BZ2), souris): sélectivité pour les récepteurs du cervelet
- flunitrazépam tritié déplacé ([8]; cervelet): ~100%
- DE50 (dose effective pour déplacer 50 % du flunitrazépam tritié) ([8]; cervelet, souris): 4 mg/kg
- flunitrazépam tritié déplacé ([8]; cortex): ~75%
- DE50 (dose effective pour déplacer 50 % du flunitrazépam tritié) ([8]; cortex, souris): 5 mg/kg
- flunitrazépam tritié déplacé ([8]; hippocampe): ~75%
- DE50 (dose effective pour déplacer 50 % du flunitrazépam tritié) ([8]; hippocampe, souris): 6 mg/kg

SMILES: O=C(Nc1cc2c(cn1)[nH]c1ccccc12)C(F)(F)F [-NHCOCF3, trifluoroacétylamino-3-β-carboline]
- IC50 [1]: 6300 nM

SMILES: CC(=O)Nc1cc2c(cn1)[nH]c1ccccc12 [-NHCOCH3, acétylamino-3-β-carboline]
- IC50 [1]: 4000 nM

SMILES: CS(=O)(=O)Nc1cc2c(cn1)[nH]c1ccccc12 [-NHSO2CH3, méthylsulfonylamino-3-β-carboline]
- IC50 [1]: 62000 nM

SMILES: CN1C(=O)CN=C(c2ccccc2F)c2cc([N+](=O)[O-])ccc21 [Flunitrazepam, reference compound]
- IC50 [1]: 4 nM

SMILES: CN1C(=O)CN=C(c2ccccc2)c2cc(Cl)ccc21 [diazepam, reference compound]
- effect on the fall of lever presses during conflict (souris [7]; 5 mg/kg s.c.): s'oppose à cette baisse des appuis

SMILES: COC(=O)c1cc2c(cn1)[nH]c1ccccc12 [méthyl-S-carboline, méthyl β-carbolyne-3-carboxylate]
- time after which the convulsant effect disappears (Babouin photosensible [9]): 20 min
